Where two headings read alike, the source gives them in different places.
Assays:
[1] = test system: skin; test: Primary cutaneous irritation; type: in vivo
[2] = test system: skin; test: Patch test; type: in vivo; settings: 1% in squalane
[3] = test system: radiation dermatitis or radiation ulcers; settings: previous trial use, publications (1) and (2); cited from earlier work
[4] = test system: skin; test: Cumulative irritation; type: in vivo; settings: 1% in squalane
[5] = Optical challenge (Adjuvante & strip method); type: in vivo; settings: induction 10% acetone
Description: |(Adjuvante & strip method)

[6] = Blepharo-irritation; type: in vivo; settings: 1% in squalane
[7] = Stability upon cutaneous administration; type: physicochemical
[8] = Phototoxicity; type: in vivo; settings: 1% and 10% in squalane
[9] = test system: rabbits; test: Subacute oral toxicity, rabbits; type: in vivo; settings: 60 and 600 mg/kg/day, 23 days
Procedure: (§1) Ubidecarenone was continuously and orally administered to male and female Wistar rats at doses of 40, 200 and 1,000 mg/kg/day for 5 weeks and to male and female rabbits at doses of 60 and 600 mg/kg/day for 23 days.

[10] = test system: heart muscle; settings: ischemic state; cited from earlier work
[11] = cited from earlier work
[12] = test system: Wistar rats; test: Subacute oral toxicity, rats; type: in vivo; settings: oral, 40, 200 and 1,000 mg/kg/day, 5 weeks
Procedure: as §1

[13] = Challenge (Adjuvante & patch method); type: in vivo; settings: induction 5% acetone
Description: Challenge Induction: 5% acetone
(Adjuvante & patch method)

COC1=C(OC)C(=O)C(C/C=C(\C)CC/C=C(\C)CC/C=C(\C)CC/C=C(\C)CC/C=C(\C)CC/C=C(\C)CC/C=C(\C)CC/C=C(\C)CC/C=C(\C)CCC=C(C)C)=C(C)C1=O [Ubidecarenone]
Primary cutaneous irritation ([1]; 1% in squalane): 0.1 | Primary cutaneous irritation, conclusion ([1]; 1% in squalane): low skin irritation | irritation to the skin ([1]; cutaneous administration, summary of Table 1): low irritation to the skin | Patch test [2]: 0/54 | Patch test, conclusion [2]: low skin irritation | effectiveness in radiation dermatitis or radiation ulcers [3]: superb effectiveness | Cumulative irritation [4]: 0.3 | Cumulative irritation, conclusion [4]: low skin irritation | Optical challenge ([5]; 0.5% in acetone): 0/5 | Optical challenge, conclusion ([5]; 0.5-10% in acetone): low optical challenge | Optical challenge ([5]; 1% in acetone): 0/5 | Optical challenge ([5]; 2% in acetone): 0/5 | Optical challenge ([5]; 5% in acetone): 0/5 | Optical challenge ([5]; 10% in acetone): 0/5 | Blepharo-irritation, conclusion [6]: low blepharo-irritation | stability upon cutaneous administration [7]: good stability | Phototoxicity, conclusion [8]: low phototoxicity | difference from controls in general conditions, blood test, urine test and morphological observation [9]: Neither rats nor rabbits developed any difference compared with their respective controls | damage of ischemic cardiac muscular tissue [10]: reduce the damage | percent oxygen utilization in heart muscle [10]: improve the percent oxygen utilization in heart muscle | solubility ([11]; methanol): scarcely soluble | solubility ([11]; oil): oil-soluble | solubility ([11]; water): scarcely soluble | difference from controls in general conditions, blood test, urine test and morphological observation [12]: Neither rats nor rabbits developed any difference compared with their respective controls | Challenge ([13]; 1% in acetone): 0/10 | Challenge, conclusion ([13]; 5% and 1% in acetone): low challenge | Challenge ([13]; 5% in acetone): 0/10

From patent US4767624A, “Decubital remedy” (priority 1985, dated 1988)
